Experimental findings from publication PMC11340408 (RSC Advances, 2024) are described below.

Assay type in all cases: cell-based, human
The test system of one series is MCF-7 cell line. Description: MTT assay, breast cancer MCF-7 cell line. The following applies: for IC50: Homo sapiens, MCF7, 48 h, read-out: IC50 against MCF-7; for Activity against MCF-7 compared to MTX (in words): MTT assay; for times greater efficacy than MTX against MCF-7: ratio to MTX IC50. On the technique in general: Formazan colour is commonly taken as a measure of viable cells.

In another series the test system is HEK-293 cell line. The series is described as follows: MTT assay, toxicity on normal cell line HEK-293. The following applies: for IC50: Homo sapiens, HEK293, 48 h, read-out: IC50 against HEK-293; for Viability of HEK-293 (in words): 15.62–500 μM.
Another series deals with A-375 cell line. Description: MTT assay, melanoma A-375 cell line. To be noted: for IC50: Homo sapiens, A-375, 48 h, read-out: IC50 against A375; for Viability of A375 (in words): 15.62–500 μM, Fig. 6A.

Bounds are passed on as bounds.

On to `Cc1ccc(/C=C/C(=O)c2ccc(Oc3nc4c(c(=O)n(C)c(=O)n4C)n3C)cc2)cc1` [Compound 4a, (E)-1,3,7-Trimethyl-8-(4-(3-p-tolylacryloyl)phenoxy)-1H-purine-2,6(3H,7H)-dione], for which the IC50 (usually the concentration that gives 50% inhibition) amounted to 38 ± 3.7 µM in the series on MCF-7 cell line, 407 ± 3.1 µM in the series on HEK-293 cell line and 279 ± 2.3 µM with A-375 cell line. The “Activity against MCF-7 compared to MTX (in words)” value in the series with MCF-7 cell line is listed as “activities surpassing that of MTX”.
In the case of `Cn1c(=O)c2c(nc(Oc3ccc(C(=O)/C=C/c4ccc(Cl)cc4Cl)cc3)n2C)n(C)c1=O` [Compound 4b, (E)-8-(4-(3-(2,4-Dichlorophenyl)acryloyl)phenoxy)-1,3,7-trimethyl-1H-purine-2,6(3H,7H)-dione], the half-inhibitory concentration (IC50) worked out at 230 ± 3.2 µM in the series with MCF-7 cell line, 347 ± 4.2 µM with HEK-293 cell line and 325 ± 3.1 µM in the series with A-375 cell line.
For `COc1ccccc1/C=C/C(=O)c1ccc(Oc2nc3c(c(=O)n(C)c(=O)n3C)n2C)cc1` [Compound 4c, (E)-8-(4-(3-(2-Methoxyphenyl)acryloyl)phenoxy)-1,3,7-trimethyl-1H-purine-2,6(3H,7H)-dione], in that order: 269 ± 4.5 µM, 451 ± 2.4 µM and 325 ± 3.8 µM.
Take `Cn1c(=O)c2c(nc(Oc3ccc(C(=O)/C=C/c4ccccc4)cc3)n2C)n(C)c1=O` [Compound 4d, (E)-8-(4-Cinnamoylphenoxy)-1,3,7-trimethyl-1H-purine-2,6(3H,7H) dione]: in the series with MCF-7 cell line, the IC50 amounted to 18 ± 1.9 µM, the “Activity against MCF-7 compared to MTX (in words)” value is on record as “activities surpassing that of MTX” and the “times greater efficacy than MTX against MCF-7” value is roughly 19 times. For the same compound, in the series on HEK-293 cell line, the IC50 is 220 ± 3.4 µM. For the same compound, the concentration for half-maximal inhibition (IC50) in the series with A-375 cell line was determined as 157 ± 4.2 µM.
For `Cn1c(=O)c2c(nc(Oc3ccc(C(=O)/C=C/c4ccc(Cl)cc4)cc3)n2C)n(C)c1=O` [Compound 4e, (E)-8-(4-(3-(4-Chlorophenyl)acryloyl)phenoxy)-1,3,7-trimethyl-1H-purine-2,6(3H,7H)-dione], in that order: 35 ± 2.2 µM, “activities surpassing that of MTX”, roughly 10 times, 386 ± 3.2 µM and 273 ± 3.4 µM.
Turning to `Cn1c(=O)c2c(nc(Oc3ccc(C(=O)/C=C/c4cccc([N+](=O)[O-])c4)cc3)n2C)n(C)c1=O` [Compound 4f, (E)-1,3,7-Trimethyl-8-(4-(3-(3-nitrophenyl)acryloyl)phenoxy)-1H-purine-2,6(3H,7H)-dione], the IC50 in the series with MCF-7 cell line, in the series on HEK-293 cell line and in the series with A-375 cell line was greater than 500 µM in each case.
As for `COc1ccc(/C=C/C(=O)c2ccc(Oc3nc4c(c(=O)n(C)c(=O)n4C)n3C)cc2)c(OC)c1` [Compound 4g, (E)-8-(4-(3-(2,4-Dimethoxyphenyl)acryloyl)phenoxy)-1,3,7-trimethyl-1H-purine-2,6(3H,7H)-dione], the IC50 is greater than 500 µM in the series with MCF-7 cell line, greater than 500 µM with HEK-293 cell line and 425 ± 3.5 µM in the series with A-375 cell line.
Turning to `COc1ccc(/C=C/C(=O)c2ccc(Oc3nc4c(c(=O)n(C)c(=O)n4C)n3C)cc2)cc1` [Compound 4h, (E)-8-(4-(3-(4-Methoxyphenyl)acryloyl)phenoxy)-1,3,7-trimethyl-1H-purine-2,6(3H,7H)-dione], the IC50 with MCF-7 cell line, in the series on HEK-293 cell line and with A-375 cell line was greater than 500 µM each time.
`Cn1c(=O)c2c(nc(Oc3ccc(C(=O)/C=C/c4ccccc4Cl)cc3)n2C)n(C)c1=O` [Compound 4i, (E)-8-(4-(3-(2-Chlorophenyl)acryloyl)phenoxy)-1,3,7-trimethyl-1H-purine-2,6(3H,7H)-dione]: the IC50 in the series with MCF-7 cell line was found to be 108 ± 3.1 µM; in the series with HEK-293 cell line it was 162 ± 4.2 µM; in the series on A-375 cell line it was 111 ± 1.9 µM. The “Viability of HEK-293 (in words)” value in the series on HEK-293 cell line (Fig. 6C) was “more toxic”. Moreover, the “Toxicity to HEK-293 compared to MTX (in words)” value in the series with HEK-293 cell line (MTT assay) is on record as “more toxic”. Also, in the series on A-375 cell line, the “Viability of A375 (in words)” value was “lowest viability values”.
Regarding `Cn1c(=O)c2c(nc(Oc3ccc(C(=O)/C=C/c4c(Cl)cccc4Cl)cc3)n2C)n(C)c1=O` [Compound 4j, (E)-8-(4-(3-(2,6-Dichlorophenyl)acryloyl)phenoxy)-1,3,7-trimethyl-1H-purine-2,6(3H,7H)-dione], the IC50 worked out at 181 ± 3.1 µM in the series on MCF-7 cell line, 214 ± 4.3 µM in the series with HEK-293 cell line and 200 ± 4.3 µM with A-375 cell line.
With `COC(=O)c1ccc(/C=C/C(=O)c2ccc(Oc3nc4c(c(=O)n(C)c(=O)n4C)n3C)cc2)cc1` [Compound 4k, (E)-Methyl 4-(3-oxo-3-(4-(1,3,7-trimethyl-2,6-dioxo-2,3,6,7-tetrahydro-1H-purin-8-yloxy)phenyl)prop-1-enyl)benzoate], in the series with MCF-7 cell line (15.62–500 μM, Fig. 6B), the “Viability of MCF-7 (in words)” value is reported as “lowest viability rate”. In the series with MCF-7 cell line, the concentration for half-maximal inhibition (IC50) came out at 34 ± 3.5 µM, the “Activity against MCF-7 compared to MTX (in words)” value is “activities surpassing that of MTX” and the “times greater efficacy than MTX against MCF-7” value was roughly 10 times. In the series with HEK-293 cell line (Fig. 6C), the “Viability of HEK-293 (in words)” value was “highest toxicity and lowest viability”. In addition, in the series on HEK-293 cell line, the IC50 is 99 ± 3 µM. Besides, the “Toxicity to HEK-293 compared to MTX (in words)” value in the series on HEK-293 cell line (MTT assay) is reported as “more toxic”. Further, in the series on HEK-293 cell line (MTT assay, normal cell line), the “Toxicity to HEK-293 cells (in words)” value was “most toxic”. Besides, in the series with A-375 cell line, the “Viability of A375 (in words)” value is listed as “lowest viability values” and the IC50 was found to be 92 ± 3.2 µM.
For `COc1ccc(C(=O)/C=C/c2ccc(Oc3nc4c(c(=O)n(C)c(=O)n4C)n3C)cc2)cc1` [Compound 5a, (E)-8-(4-(3-(4-Methoxyphenyl)-3-oxoprop-1-enyl)phenoxy)-1,3,7-trimethyl-1H-purine-2,6(3H,7H)-dione], the IC50 in the series on MCF-7 cell line was 249 ± 3.2 µM; in the series with HEK-293 cell line, greater than 500 µM; in the series on A-375 cell line, 249 ± 3.6 µM.
As for `Cn1c(=O)c2c(nc(Oc3ccc(/C=C/C(=O)c4ccc([N+](=O)[O-])cc4)cc3)n2C)n(C)c1=O` [Compound 5b, (E)-1,3,7-Trimethyl-8-(4-(3-(4-nitrophenyl)-3-oxoprop-1-enyl)phenoxy)-1H-purine-2,6(3H,7H)-dione], the IC50 in the series on MCF-7 cell line came out at 223 ± 3.7 µM; in the series with HEK-293 cell line it was 419 ± 4.6 µM; in the series with A-375 cell line, 275 ± 3.7 µM.
In the case of `Cn1c(=O)c2c(nc(Oc3ccc(/C=C/C(=O)c4cccc([N+](=O)[O-])c4)cc3)n2C)n(C)c1=O` [Compound 5c, (E)-1,3,7-Trimethyl-8-(4-(3-(3-nitrophenyl)-3-oxoprop-1-enyl)phenoxy)-1H-purine-2,6(3H,7H)-dione], the IC50 in the series on MCF-7 cell line, in the series with HEK-293 cell line and in the series with A-375 cell line was greater than 500 µM throughout.
As to `Cc1ccc(C(=O)/C=C/c2ccc(Oc3nc4c(c(=O)n(C)c(=O)n4C)n3C)cc2)cc1` [Compound 5d, (E)-1,3,7-Trimethyl-8-(4-(3-oxo-3-p-tolylprop-1-enyl)phenoxy)-1H-purine-2,6(3H,7H)-dione], the IC50 in the series on MCF-7 cell line, with HEK-293 cell line and in the series with A-375 cell line was greater than 500 µM each time.
On to `Cn1c(=O)c2c(nc(Oc3ccc(/C=C/C(=O)c4ccc5ccccc5c4)cc3)n2C)n(C)c1=O` [Compound 5e, (E)-1,3,7-Trimethyl-8-(4-(3-(naphthalen-2-yl)-3-oxoprop-1-enyl)phenoxy)-1H-purine-2,6(3H,7H)-dione], for which the half-maximal inhibitory concentration (IC50) was 333 ± 2.5 µM in the series with MCF-7 cell line, greater than 500 µM in the series on HEK-293 cell line and greater than 500 µM in the series on A-375 cell line.
For `Cn1c(=O)c2c(nc(Oc3ccc(/C=C/C(=O)c4ccc(Cl)cc4)cc3)n2C)n(C)c1=O` [Compound 5f, (E)-8-(4-(3-(4-Chlorophenyl)-3-oxoprop-1-enyl)phenoxy)-1,3,7-trimethyl-1H-purine-2,6(3H,7H)-dione], the results for the IC50 with MCF-7 cell line, with HEK-293 cell line and with A-375 cell line were 130 ± 3.4 µM, 240 ± 3.7 µM and 368 ± 3.1 µM, respectively. Also, in the series with HEK-293 cell line (Fig. 6C), the “Viability of HEK-293 (in words)” value is recorded as “more toxic”.
With `CN(Cc1cnc2nc(N)nc(N)c2n1)c1ccc(C(=O)N[C@@H](CCC(=O)O)C(=O)O)cc1` [MTX, methotrexate, reference compound], the IC50 in the series with MCF-7 cell line came out at 343 ± 3.6 µM; in the series on HEK-293 cell line, 199 ± 2.4 µM; in the series with A-375 cell line it was 418 ± 2 µM. The “Toxicity against HEK-293 at 500 μM (in words)” value in the series with HEK-293 cell line (500 μM, Fig. 6C) is reported as “highest toxicity”.
